Activity calls are given as the source filed them. The rule behind the calls is not given here.
What was measured:
T-24 = test: Antiproliferative activity against human T24 cells after 48 hrs by MTT assay; assay type: functional, cell-based; conditions: T-24, 48 h
MGC-803 [1] = test: Antiproliferative activity against human MGC803 cells after 48 hrs by MTT assay; assay type: functional, cell-based; conditions: MGC-803, 48 h
HepG2 = test: Antiproliferative activity against human HepG2 cells after 48 hrs by MTT assay; assay type: functional, cell-based; conditions: HepG2, 48 h
WI-38 = test: Antiproliferative activity against human WI38 cells after 48 hrs by MTT assay; assay type: cell-based; conditions: WI-38, 48 h
HeLa = test: cells; conditions: Homo sapiens, 48 h
A549 = test: cells; conditions: Homo sapiens, A549, 48 h
[2] = biological target: T1, DNA topoisomerase 1 (Homo sapiens) (UniProt P11387); test: Inhibition of topoisomerase 1 (unknown origin) at 50 uM using pBR322 DNA as substrate preincubated for 30 mins followed by substrate addition and measured after 30 mins by ethidium bromide staining-based agarose gel electrophoresis analysis
T1 sequence (whole entry): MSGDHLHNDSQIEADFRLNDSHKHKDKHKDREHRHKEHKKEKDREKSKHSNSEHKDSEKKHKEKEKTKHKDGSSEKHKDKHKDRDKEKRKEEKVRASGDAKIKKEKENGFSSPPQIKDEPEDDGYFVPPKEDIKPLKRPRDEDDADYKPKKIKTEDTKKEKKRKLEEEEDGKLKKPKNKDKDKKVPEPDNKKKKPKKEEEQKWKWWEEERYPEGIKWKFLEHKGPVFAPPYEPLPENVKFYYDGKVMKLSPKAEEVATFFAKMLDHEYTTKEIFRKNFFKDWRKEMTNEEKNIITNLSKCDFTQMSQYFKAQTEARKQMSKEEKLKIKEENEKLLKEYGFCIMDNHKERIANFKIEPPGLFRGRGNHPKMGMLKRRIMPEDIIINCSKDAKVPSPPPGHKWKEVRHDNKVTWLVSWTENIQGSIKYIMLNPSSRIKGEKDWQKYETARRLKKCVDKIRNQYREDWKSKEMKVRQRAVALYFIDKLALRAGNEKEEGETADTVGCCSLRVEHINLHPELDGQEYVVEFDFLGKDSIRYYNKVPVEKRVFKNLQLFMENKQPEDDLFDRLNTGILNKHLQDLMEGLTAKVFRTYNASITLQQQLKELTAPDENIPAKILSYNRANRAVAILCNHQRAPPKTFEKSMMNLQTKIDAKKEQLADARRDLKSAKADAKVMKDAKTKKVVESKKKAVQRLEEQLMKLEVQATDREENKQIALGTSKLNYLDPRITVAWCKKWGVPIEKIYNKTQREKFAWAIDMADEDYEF

[3] = biological target: T1, DNA topoisomerase 1 (Homo sapiens); test: Inhibition of topoisomerase 1 (unknown origin) using pBR322 DNA as substrate assessed as reduction in pBR322 DNA unwinding at 50 uM after 30 mins by ethidium bromide staining-based agarose gel electrophoresis analysis
DNA = test: Binding affinity to Escherichia coli supercoiled pBR322 DNA assessed as DNA intercalation at 50 uM after 1 hr by ethidium bromide staining-based agarose gel electrophoresis analysis; assay type: nucleic-acid assay
MGC-803 [4] = test: Antitumor activity against human MGC803 cells xenografted in BALB/C mouse assessed as tumor growth inhibition at 6 mg/kg, ip dosed every other day for 16 days relative to control; assay type: functional; conditions: MGC-803, ip, read-out: TGI

| SMILES | IC50 (T-24) [µM] | IC50 (MGC-803 [1]) [µM] | IC50 (HepG2) [µM] | IC50 (WI-38) [µM] | IC50 (HeLa) [µM] | IC50 (A549) [µM] | inhibition [2] | inhibition [3] | Activity (DNA) | inhibition in vivo at 6 mg/kg (MGC-803 [4]) [%] |
| --- | --- | --- | --- | --- | --- | --- | --- | --- | --- | --- |
| c1ccc2nc(-c3nc4ccccc4[nH]3)c(NCCCN3CCOCC3)nc2c1 | > 100 | > 100 | > 100 | > 100 | > 100 | > 100 |  |  |  |  |
| c1ccc2nc(-c3nc4ccccc4s3)c(NCCN3CCOCC3)nc2c1 | > 100 | > 100 | > 100 | > 100 | > 100 | > 100 |  |  |  |  |
| c1ccc2nc(-c3nc4ccccc4[nH]3)c(NCCN3CCOCC3)nc2c1 | > 100 | > 100 | > 100 | > 100 | > 100 | > 100 |  |  |  |  |
| c1ccc2nc(-c3nc4ccccc4s3)c(NCCCN3CCOCC3)nc2c1 | > 100 | > 100 | > 100 | > 100 | > 100 | > 100 |  |  |  |  |
| c1ccc2nc(-c3nc4ccccc4o3)c(NCCN3CCOCC3)nc2c1 | > 100 | > 100 | > 100 | > 100 | > 100 | > 100 |  |  |  |  |
| CCN(CC)CCCNc1nc2ccccc2nc1-c1nc2c(ccc3ccccc32)o1 | 8 | 11.5 | 12.7 | 14.7 | 10.8 | 11.3 | inactive | inactive | inactive |  |
| CN(C)CCCNc1nc2ccccc2nc1-c1nc2c(ccc3ccccc32)o1 | 5.75 | 11.3 | 10.8 | 16.4 | 10.5 | 4.66 | inactive | inactive | inactive |  |
| CC[C@@]1(O)C(=O)OCc2c1cc1n(c2=O)Cc2cc3ccccc3nc2-1 [CAMPTOTHECIN] | 6.8 | 2.96 | 4.79 | 8.37 | 6.51 | 4.43 |  |  |  | 51.5 |
| c1ccc2nc(-c3nc4ccccc4o3)c(NCCCN3CCOCC3)nc2c1 | > 100 | > 100 | > 100 | > 100 | > 100 | > 100 |  |  |  |  |

Reference: ChEMBL document CHEMBL4316587, “Identification of 3-(benzazol-2-yl)quinoxaline derivatives as potent anticancer compounds: Privileged structure-based design, synthesis, and bioactive evaluation in vitro and in vivo” (Eur J Med Chem, 2019)
